Assay results: patent US6582902B1, “Method for deriving epitopes” (priority 1992, dated 2003)
No end group written: not given here.

Assays:
anti-g10 serum [1] = assay: Competition for immunoprecipitation of [32P] D10 RNA by anti-g10 serum; format: binding, rabbit; details: FIG. 5A (125 mg competitor) and FIG. 5B (g10 peptide 37-444 nM)
Protocol: [^32P] labeled in vitro transcribed D10 RNA or [^35S] labeled in vitro translated g10 fusion protein (g10-U1A) was immunoprecipitated by the anti-g10 serum in the presence of various competitors. D10 RNA and g10 fusion protein bound in the immunoprecipitations were analyzed using denaturing polyacrylamide gels and autoradiography. Panel A: D10 RNA immunoprecipitations with: 1, no competitor; 2, no g10 antiserum added; 3, 125 mg of g10 peptide; 4, 125 mg of bovine serum albumin; 5, 125 mg of control peptide (sequence ETPEEREERRR) (SEQ ID NO:7). Panel B: D10 immunoprecipitations after incubation with increasing amounts of g10 peptide. Lanes: 1, no competitor; 2, 37 nM; 3, 74 nM; 4, 148 nM; 5, 222 nM; 6, 444 nM. Panel C: immunoprecipitations of a g10 containing fusion protein (g10-U1-A) using various competitors. Lanes: 1, no competitor; 2, preimmune rabbit serum; 3, 7.4 nM g10 peptide; 4, 0.7 nM D10 RNA; 5, 0.7 nM unrelated RNA (cDNA encoding loop sequence: ACGTTCGTCG)(SEQ ID NO:8). Panel D: immunoprecipitation of g10-U1A fusion protein after incubation with increasing amounts of D10 RNA. Lanes: 1, no competitor; 2, 0.0175 nM; 3, 0.035 nM; 4, 0.35 nM; 5, 0.7 nM; 6, 1.05 nM.
Competition experiments were performed by addition of the various competitors to [^32P] labeled RNA or [^35S] labeled in vitro translated g10-snRNP-A fusion protein prior to immunoprecipitation. Bound RNAs were analyzed on 6% denaturing acrylamide gels and proteins on 10% SDS-PAGE gels, followed by autoradiography. Antibody-RNA complexes were formed in the presence of competitor g10 peptide or control peptide (FIG. 5A), or with increasing amounts of g10 peptide (FIG. 5B), and uncompeted RNA was recovered by immunoprecipitation.

[2] = test system: g10-reactive antibodies (anti-g10 serum); assay: Competition for immunoprecipitation of [35S] g10-U1-A fusion protein by anti-g10 serum; format: binding, rabbit; details: FIG. 3B lanes 8-12; g10 peptide 27.8-750 nM; control peptide 25 mM
Description: (§1) Panel A: Western blot of E. coli extracts containing various U1-A protein constructs. All extracts were produced from induced E. coli cells containing recombinant pET-8c T7 expression vectors in accordance with known techniques. See F. Studier et al., Meth. Enzym. 185, 60-89 (1991). U1-A cDNA was cloned into pET-8c either attached or not attached to the g10 peptide. Lanes: 1, 5 and 9: the pET-8c vector alone; 2, 6 and 10: g10-U1-A protein; 3, 7 and 11: U1-A protein; 4, 8 and 12: total HeLa cell extracts. Lanes 1-4 were probed with pre-immune rabbit serum; lanes 5-8 were probed with anti-g10 serum; and lanes 9-12 were probed with a U1/U2-specific autoimmune serum (patient). EW reacts with U1 RNA, U1-70K (70 kDa), U1-A (31 kDa) and U2-A′ (28.4 kDa) (lane 12). Panel B: Immunoprecipitation and competition analysis of [^35S]-methionine-labeled U1-A and g10-U1-A proteins expressed by in vitro transcription, and subsequent translation in rabbit reticulocyte lysates. Lanes: 1 and 2 show the amount of U1-A and g10-U1-A translation product, respectively, added to each immunoprecipitation reaction; 3: blank; 4 and 5: U1-A and g10-U1-A precipitated with serum EW (reactive with U1-A); 6 and 7: U1-A and g10-U1-A, respectively, precipitated with anti-g10 serum. In lanes 8-12, g10-U1-A was precipitated with anti-g10 serum in the presence of varying amounts of competitors as follows: lanes 8-11 contained the g10 peptide at concentrations of 27.8, 83.3, 250 and 750 nM, respectively; lane 12 contained a control peptide (sequence GKSRGFAFVEFK-amide) (SEQ ID NO:4) at a concentration of 25 mM. The faint lower band in all lanes represents either a degradation product or a premature translation termination product and is seen consistently in U1-A translations.
[^32P] labeled in vitro transcribed D10 RNA or [^35S] labeled in vitro translated g10 fusion protein (g10-U1A) was immunoprecipitated by the anti-g10 serum in the presence of various competitors. D10 RNA and g10 fusion protein bound in the immunoprecipitations were analyzed using denaturing polyacrylamide gels and autoradiography. […]

anti-g10 serum [3] = assay: Western blot of E. coli / HeLa extracts probed with anti-g10 serum; format: binding, rabbit; details: FIG. 3A lanes 5-8; serum diluted 1:2000
Description: as §1
(§2) A thirteen amino acid peptide was synthesized representing the amino-terminus of g10-fusion proteins expressed from the Studier T7 expression vectors (F. Studier et al., Meth. Enzym. 185, 60-89 (1991)) (peptide sequence: MASMTGGQQMGRC-carboxyl amide (SEQ ID NO:11), purchased from Multiple Peptide Systems). […]

[4] = test system: U1/U2-specific autoimmune serum (patient); assay: Western blot probed with control anti-U1-A autoimmune serum (patient); format: binding, human; details: FIG. 3A lanes 9-12
Description: as §1, §2

anti-g10 serum [5] = assay: Immunoprecipitation of [35S]-labeled in vitro translated proteins with anti-g10 serum; format: binding, rabbit; details: FIG. 3B lanes 6-7
Description: as §1, with “In lanes 8-12, g10-U1-A was precipitated with anti-g10 serum in the presence of varying amounts of competitors as follows: lanes 8-11 contained the g10 peptide at concentrations of 27.8, 83.3, 250 and 750 nM, respectively; lane 12 contained a control peptide (sequence GKSRGFAFVEFK-amide) (SEQ ID NO:4) at a concentration of 25 mM. The faint lower band in all lanes represents either a degradation product or a premature translation termination product and is seen consistently in U1-A translations.” left out

| Substance | effect of competitor on D10 RNA precipitation by the anti-g10 serum (anti-g10 serum [1]) | inhibition of anti-g10 antibody binding to g10-U1-A by free peptide [2] | reactivity with anti-g10 serum in Western blot (anti-g10 serum [3]) | reactivity with control anti-U1-A serum in Western blot [4] | precipitation by anti-g10 serum (immunoprecipitation) (anti-g10 serum [5]) |
| --- | --- | --- | --- | --- | --- |
| ETPEEREERRR [unrelated peptide] | neither bovine serum albumin nor an unrelated peptide showed any effect |  |  |  |  |
| MASMTGGQQMGRC-carboxyl amide (MASMTGGQQMGRC-NH2) [g10 peptide, reference compound] | inhibited RNA binding | inhibited |  |  |  |
| authentic HeLa cell U1-A: endogenous U1-A (31 kDa) in total HeLa cell extracts |  |  | not | reacted |  |
| bovine serum albumin: bovine serum albumin used as control competitor | neither bovine serum albumin nor an unrelated peptide showed any effect |  |  |  |  |
| g10-U1-A fusion protein: g10-tagged U1-snRNP A protein |  |  | reacted | reacted | precipitated |
| recombinant U1-A: U1-A protein expressed without the g10 peptide |  |  | not | reacted | not |
